Test [1] deals with Karpas299 human leukemia cells. Description: Anti-proliferative activity on Karpas 299 cells (ATPLite). In kind it is cell-based. As to conditions: KARPAS-299, 96 h, treatment days 1-3, viability day 4, mean of at least two experiments, 95% confidence interval in brackets. Here is the method:
(§1) KG-1 and Karpas299 human leukemia cells were obtained from the ATCC (USA) and cultivated in RPMI 1640 medium (with HEPES and Glutamine, BE12-115F, Lonza, France) supplemented with, respectively, 20% and 15% foetal calf serum (Lonza, France), at 37° C. and under 5% CO2. To measure the anti-proliferative properties of tested molecules, 2×10^4 cells are seeded at day 0 in a 96 wells plate. The compounds to be tested, stored at −20° C. as 10^−2 M stock solution in 100% DMSO, are freshly diluted on day 1 in RPMI 1640 medium, before adding a dose range of 3.2 nM to 10 μM to the cells. This treatment is repeated on day 2 and 3, and on day 4 cell viability is assessed using the ATPLite kit from Perkin (ATPlite 1 Step Luminescence Assay System, ref 3016739), following the provider instructions. The raw data are analyzed with GraphPad Prism software (v4.03) to generate EC50 values corresponding to the compound concentrations giving 50% reduction in cell viability. The values presented are the mean results of at least two independent experiments.
For orientation: In ATP-based viability assays light output follows the ATP content of the culture.

Test [2] has as its target T1, His-DNMT1 (182 kDa, human) (Homo sapiens, UniProt P26358).
T1 construct: His; made in house
Description: DNMT1 assay ([methyl-3H] SAM Flashplate). The test is classed as biochemical. On the procedure: His-DNMT1 (182 kDa, human) was cloned, expressed and purified as described in Halby et al. (ChemBioChem 2012, 13, 157-65). The reaction was performed in a 10 μL total reaction volume in low volume NBS™ 384-well microplates (Corning), containing the tested compound (up to 1% DMSO), 1 μM of a SAM/[methyl-^3H] SAM (3 TBq/mmol, PerkinElmer) mix in a ratio of 3-to-1 (isotopic dilution 1*:3), 0.3 μM of biotinylated hemimethylated DNA duplex (5′-GATmCGCmCGATGmCGmCGAATmCGmCGAT mCGATGmCGAT-3′ and BIOT-5′-[…] ATC-3′), and 90 nM of DNMT1 in methylation buffer (20 mM HEPES pH 7.2, 1 mM EDTA, 50 mM KCl, 25 μg/mL BSA). The reaction was incubated at 37° C. for 2 hours. 8 μL are then transferred into a streptavidin 96-well scintillant coated Flashplate™ (PerkinElmer) containing 190 μL of 20 μM SAH in 50 mM Tris-HCl pH 7.4. The Flashplate™ was agitated at room temperature for 1 hour, washed three times with 200 μL of 0.05% Tween®-20 in 50 mM Tris-HCl pH 7.4, and read in 200 μL of 50 mM Tris-HCl pH 7.4 on TopCount NXT (PerkinElmer).

In test [3] the target is T2, human C-terminal DNMT3A (a.a. 623-908) (Homo sapiens, UniProt Q9Y6K1).
T2 construct: The human C-terminal DNMT3A (a.a. 623-908); made in house
Description: DNMT3A assay (restriction-based fluorescence). In kind it is biochemical. The text has this:
DNMT3A enzyme inhibition was adapted from the restriction-based fluorescence assay protocol described in Ceccaldi et al. (ChemBioChem 2011, 12, 1337-45). Briefly, a 5′-labelled biotin oligonucleotide is hybridized to its complementary strand labelled with 6-carboxyfluorescein at the 3′-end into a 384 well microplate (black Optiplates; Perkin Elmer) pre-coated with avidin. The duplex contains a unique CpG site overlapping with a restriction site of a methylation sensitive restriction enzyme. The human C-terminal DNMT3A (a.a. 623-908), produced as described in Gros et al. (Nucleic Acids Research 2013 Aug. 25), was added in each well (200 ng/well) and mixed with the chemical compounds at desired concentrations and freshly prepared AdoMet (20 μM final concentration) to start the reaction in a total volume of 50 μL. After 1 hour incubation at 37° C. each well were washed three times with PBS, Tween-20 0.05%, NaCl (500 mM) and three more times with PBST. Specific fluorescent signals were detected with the methylation-sensitive restriction enzyme HpyCH4IV (NEB) as described and measured on a Perkin Elmer Envision detector. The percentage of inhibition is reported. The formula used to calculate the percentage of inhibition is [(X−Y)/X]×100, where X is the signal determined in the absence of the inhibitor and Y is the signal obtained in the presence of the inhibitor. The concentration at which 50% of efficacy of inhibition is observed (EC50) was determined by analysis of a concentration range of the tested compound in triplicates. The non-linear regression fittings with sigmoidal dose-response (variable slope) were performed with GraphPad Prism 4.03 (GraphPad Software).

In test [4] the test system is PANC1 cells (human pancreatic carcinoma cells). Description: Anti-proliferative activity on PANC1 cells (ATPlite one step). The following applies: PANC-1, 72 h incubation. The test is classed as cell-based. On the procedure:
(§2) The antiproliferative activity of compounds was measured in vitro using the ATP quantification method “ATPlite one step assay” (Perkin Elmer ref 6016739) according to the manufacturer conditions.
(§3) Briefly, WM266.4 cells (human melanoma cells) (5×10^4 cells per ml in RPMI1640 medium, 10% FBS, 2 mM glutamine, 50 U/mL penicillin/streptomycin and 1.25 μg/mL fungizone), PANC1 cells (human pancreatic carcinoma cells) (2×10^4 cells per ml in DMEM medium, 10% FBS, 2 mM glutamine, 50 U/mL penicillin/streptomycin and 1.25 μg/mL fungizone), and U87MG cells (human neuronal gliablastoma-astrocytoma-cells) (3×10^4 cells per ml in MEM medium, 10% FBS, 2 mM glutamine, 50 U/mL penicillin/streptomycin and 1.25 μg/mL fungizone) were seeded in 96-well plates, incubated for 24 h and treated with 8 increasing concentrations of test compounds diluted in cells respective mediums, or vehicle in triplicate.
(§4) Cells were then incubated for 72 h at 37° C. in humidified 5% CO2 atmosphere.
(§5) At the end of the experiment, cell viability was evaluated by determining the level of ATP released by viable cells.
(§6) EC50 values were determined with curve fitting analysis method (non linear regression model with a sigmoid dose response, variable Hill slope coefficient) provided by the Prism Software (GraphPad). […]

The test system of test [5] is U87MG cells (human neuronal gliablastoma-astrocytoma-cells). Description: Anti-proliferative activity on U87MG cells (ATPlite one step). In kind it is cell-based. The following applies: U-87 MG, 72 h incubation. Here is the method: as §2, §3, §4, §5, §6
Test [6] concerns KG-1 human leukemia cells. Description: Anti-proliferative activity on KG-1 cells (ATPLite). In kind it is cell-based. As to conditions: KG-1, 96 h, treatment days 1-3, viability day 4, mean of at least two experiments, 95% confidence interval in brackets. Here is the method: as §1
The test system of test [7] is WM266.4 cells (human melanoma cells). Description: Anti-proliferative activity on WM266.4 cells (ATPlite one step). The test is classed as cell-based. The following applies: WM 266-4, 72 h incubation, read-out: EC50 (μM) WN226.4. On the procedure:
as §2, §3, §4, §5, §6

T2 sequence (Q9Y6K1 627-912 limits assumed): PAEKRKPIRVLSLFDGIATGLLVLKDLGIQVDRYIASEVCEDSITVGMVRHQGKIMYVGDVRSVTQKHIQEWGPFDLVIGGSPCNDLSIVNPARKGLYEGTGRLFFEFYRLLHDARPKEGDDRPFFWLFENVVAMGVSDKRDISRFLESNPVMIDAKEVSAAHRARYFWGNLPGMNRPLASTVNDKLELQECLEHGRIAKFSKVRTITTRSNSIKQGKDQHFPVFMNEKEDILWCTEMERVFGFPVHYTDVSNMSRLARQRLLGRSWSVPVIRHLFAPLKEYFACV
T1 sequence (P26358 whole entry): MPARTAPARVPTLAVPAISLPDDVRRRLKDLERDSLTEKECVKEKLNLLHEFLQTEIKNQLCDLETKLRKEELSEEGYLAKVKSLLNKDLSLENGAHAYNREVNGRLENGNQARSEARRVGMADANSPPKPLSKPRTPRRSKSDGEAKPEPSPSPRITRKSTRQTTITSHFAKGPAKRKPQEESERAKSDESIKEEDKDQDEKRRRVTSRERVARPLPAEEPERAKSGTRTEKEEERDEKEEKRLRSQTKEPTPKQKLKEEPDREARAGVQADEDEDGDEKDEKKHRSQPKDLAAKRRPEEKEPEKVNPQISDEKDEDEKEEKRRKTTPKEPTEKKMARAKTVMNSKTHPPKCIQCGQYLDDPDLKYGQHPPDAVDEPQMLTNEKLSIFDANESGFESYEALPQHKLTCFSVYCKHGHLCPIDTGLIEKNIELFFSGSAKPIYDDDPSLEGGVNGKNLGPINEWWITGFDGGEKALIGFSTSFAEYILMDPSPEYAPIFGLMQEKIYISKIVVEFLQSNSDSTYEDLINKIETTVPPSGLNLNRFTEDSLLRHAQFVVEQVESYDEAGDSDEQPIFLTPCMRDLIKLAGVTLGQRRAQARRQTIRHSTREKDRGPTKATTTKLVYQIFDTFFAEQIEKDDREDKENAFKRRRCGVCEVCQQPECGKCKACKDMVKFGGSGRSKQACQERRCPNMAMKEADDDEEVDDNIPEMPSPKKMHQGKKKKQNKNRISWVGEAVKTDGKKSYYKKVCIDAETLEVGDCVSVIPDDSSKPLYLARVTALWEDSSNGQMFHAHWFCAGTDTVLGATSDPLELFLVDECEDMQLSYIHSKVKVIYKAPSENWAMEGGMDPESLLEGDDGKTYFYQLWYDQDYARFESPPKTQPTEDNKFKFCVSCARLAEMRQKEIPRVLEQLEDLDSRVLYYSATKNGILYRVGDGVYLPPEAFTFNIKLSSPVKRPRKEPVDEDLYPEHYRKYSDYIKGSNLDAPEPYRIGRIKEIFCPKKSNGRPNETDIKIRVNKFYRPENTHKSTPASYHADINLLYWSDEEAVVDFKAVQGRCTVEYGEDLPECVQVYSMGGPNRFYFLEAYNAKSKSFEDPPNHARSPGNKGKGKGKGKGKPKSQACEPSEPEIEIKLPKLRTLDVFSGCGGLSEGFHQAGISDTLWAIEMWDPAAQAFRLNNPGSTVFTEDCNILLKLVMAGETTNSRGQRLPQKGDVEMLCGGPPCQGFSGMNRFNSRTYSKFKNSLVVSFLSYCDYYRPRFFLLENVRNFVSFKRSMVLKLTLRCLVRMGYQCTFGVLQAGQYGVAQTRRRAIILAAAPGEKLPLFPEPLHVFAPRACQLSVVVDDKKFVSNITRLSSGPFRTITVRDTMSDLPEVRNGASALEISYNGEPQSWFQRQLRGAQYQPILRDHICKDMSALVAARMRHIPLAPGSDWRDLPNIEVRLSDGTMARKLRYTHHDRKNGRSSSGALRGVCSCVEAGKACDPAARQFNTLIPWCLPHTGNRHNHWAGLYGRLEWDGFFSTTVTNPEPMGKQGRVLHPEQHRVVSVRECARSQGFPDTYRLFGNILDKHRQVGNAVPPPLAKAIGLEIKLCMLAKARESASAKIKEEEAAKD

With `c1ccc(CCCNc2ncnc3cc(OCC4CCN(CCNc5ccnc6ccccc56)CC4)ccc23)cc1` [Compound G, 4-((3-phenylpropyl)amino)-7-((1-(2-(quinolin-4-ylamino)ethyl)piperidin-4-yl)methoxy)quinazoline], the EC50 turned out to be 1.8 µM in test [1]; 2400 nM in test [3] (concentration range in triplicates); 1.2 µM in test [4]; 8.9 µM in test [5]; 0.5 µM in test [6]; 3.9 µM in test [7]. For the same compound, the inhibition at 32 µM in test [2] (compound at 32 μM, read-out: DNMT1 (% of inhibition) 32 μM) turned out to be 24.5%. Further, the inhibition at 100 µM in test [2] (compound at 100 μM, read-out: DNMT1 (% of inhibition) 100 μM) was found to be 91.2%. Besides, the inhibition at 10 µM in test [3] (compound at 10 μM, read-out: DNMT3A (% of inhibition) 10 μM) was found to be 81%. At 20 µM the inhibition in test [3] (compound at 20 μM) was 97%.

As a reminder, the EC50 is the midpoint of the concentration-response curve. By inhibition is commonly meant the drop in the measured response relative to a control, in per cent.

Source of the values: US9951044B2, “Quinazoline derivatives and their use as DNA methyltransferase inhibitors” (PIERRE FABRE MEDICAMENT, priority 2013, dated 2018).
